Results on 30 compounds are retold here after PubChem BioAssay (NCI).

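Following 48 hours of exposure in 96-well plates, responses at five concentrations were used to interpolate endpoints linearly. The concentration for full growth arrest is given as TGI.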

One assay deals with MCF7 breast. The experiment in a line: NCI anticancer screen, dose series, 48 h.
Regarding `O=C(NNC(=O)c1ccccc1SSc1ccccc1C(=O)NNC(=O)c1ccccc1S)c1ccccc1S`, the TGI is more than 100 µM.

In turn, `Cc1ccccc1-n1c(=O)c2ncn(CCCl)c2n(-c2ccccc2C)c1=S` had a TGI of more than 100 µM.

`CNC(=O)C(C)C1CCC2(C)C=CC(=O)C(C)=C2C1O` (centres undefined) returned a TGI of more than 100 µM.

Take `Oc1ccc(-c2nc(-c3cccnc3)c(-c3ccc(F)cc3)[nH]2)cc1`: the TGI is 32.7 µM.

As to `CC(C)CCCCCCCCCCCCC(=O)NCC(=O)NC1C(C)OC(Nc2ncnc3c2ncn3C)C(O)C1O` (centres undefined), the TGI is more than 100 µM.

`Cc1cn(C2CC(N(O)C(N)=O)C(CO)O2)c(=O)[nH]c1=O` (centres undefined) registered a TGI of more than 100 µM.

In turn, `O=C(Cc1cccs1)N[C@@H]1C(=O)N2C(C(=O)OC(c3ccccc3)c3ccccc3)=C(CO)CS[C@H]12` showed a TGI of more than 100 µM.

`COc1ccc2c(=O)c(O)c(-c3ccc(OC)c(OC)c3)oc2c1` yielded a TGI of more than 100 µM.

The test system of a further assay is HOP-92 NSCLC. The experiment in a line: NCI anticancer screen, dose series, 48 h.
As for `COc1cc([C@@H]2OCC3C(c4ccc5c(c4)OCO5)OCC32)cc(OC)c1OC` (some centres undefined), the TGI was 60.9 µM.

As for `O=C1CCC23CC(C=CC=C12)n1c(=O)n(-c2ccccc2)c(=O)n13` (centres undefined), the TGI is more than 100 µM.

Compound `C[C@]12CC[C@H](O)CC1=CC[C@@H]1C2CC[C@]2(C)C(=O)N(N)C(=O)CC12` (some centres undefined) had a TGI of more than 100 µM.

Regarding `O=c1[nH][nH]c(=O)n1Cc1ccccc1Cn1c(=O)[nH][nH]c1=O`, the TGI was more than 100 µM.

Regarding `O=C(NNC(=O)c1ccccc1SSc1ccccc1C(=O)NNC(=O)c1ccccc1S)c1ccccc1S`, the TGI was more than 100 µM.

`Cc1ccccc1-n1c(=O)c2ncn(CCCl)c2n(-c2ccccc2C)c1=S` yielded a TGI of more than 100 µM.

In the case of `CNC(=O)C(C)C1CCC2(C)C=CC(=O)C(C)=C2C1O` (centres undefined), the TGI is more than 100 µM.

As for `CCN(CC)CCC(=O)Nc1ccc2c(c1)C(=O)c1ccc(NC(=O)CCN(CC)CC)cc1C2=O`, the TGI amounted to 30 µM.

The compound `CC(C)CCCCCCCCCCCCC(=O)NCC(=O)NC1C(C)OC(Nc2ncnc3c2ncn3C)C(O)C1O` (centres undefined) came in with a TGI of 8.41 µM.

In turn, `Cc1cn(C2CC(N(O)C(N)=O)C(CO)O2)c(=O)[nH]c1=O` (centres undefined) came in with a TGI of more than 100 µM.

The compound `COc1nc(N)c(C(=O)CCl)c(=O)n1C` showed a TGI of 16.1 µM.

`CC1C=C(CCCCCCCCCCCC[C@@H](O)[C@@H]2CC[C@@H]([C@@H]3CC[C@@H](C(O)CCCCCCCCCCCCC4=C[C@H](C)OC4=O)O3)O2)C(=O)O1` (some centres undefined) displayed a TGI of more than 100 µM.

The compound `O=C1c2ccccc2C2C1N2C(=O)C(F)(F)F` (centres undefined) registered a TGI of more than 100 µM.

With `CC(=O)NC1=C(NCCC(C)C)C(=O)c2ccccc2C1=O`, the TGI was more than 50 µM.

Consider `O=C(Cc1cccs1)N[C@@H]1C(=O)N2C(C(=O)OC(c3ccccc3)c3ccccc3)=C(CO)CS[C@H]12`, for which the TGI is more than 100 µM.

`COc1ccc2c(=O)c(O)c(-c3ccc(OC)c(OC)c3)oc2c1` yielded a TGI of 9.17 µM.

`CC(=O)NNc1nc(C)c(C(=O)NNC(=O)C(=O)Nc2c(Cl)cc([N+](=O)[O-])cc2Cl)s1` showed a TGI of 56.2 µM.

In turn, `Nc1cccc2cc(Cl)cnc12` came in with a TGI of more than 100 µM.

With `CCOC(=O)C1=C(C)NC(=S)NC1c1ccccc1` (centres undefined), the TGI was more than 100 µM.

The compound `N.N.N.N.O=[N+]([O-])[O-].[Co+3].[N-]=[N+]=[N-].[N-]=[N+]=[N-]` returned a TGI of more than 100 µM.

`COC(=O)[C@H](Cc1c[nH]c2ccccc12)NP(=O)(O)OCC1C=CC(n2cc(C)c(=O)[nH]c2=O)O1` (some centres undefined) showed a TGI of more than 100 µM.

The compound `CCC12C=CCN3CCC4(C(=C(C(=O)OC)[C@@H]1O)Nc1ccccc14)C32` (some centres undefined) displayed a TGI of 4.16 µM.

For the compound `CC(=O)Nc1ccc(-c2nnc(SCC(=O)Nc3ccc([N+](=O)[O-])cc3)o2)cc1`, the TGI was 37.7 µM.

A further assay concerns UACC-62 melanoma. The experiment in a line: NCI anticancer screen, dose series, 48 h.
As to `O=C1CCC23CC(C=CC=C12)n1c(=O)n(-c2ccccc2)c(=O)n13` (centres undefined), the TGI is more than 100 µM.

In turn, `C[C@]12CC[C@H](O)CC1=CC[C@@H]1C2CC[C@]2(C)C(=O)N(N)C(=O)CC12` (some centres undefined) returned a TGI of more than 100 µM.

For `O=c1[nH][nH]c(=O)n1Cc1ccccc1Cn1c(=O)[nH][nH]c1=O`, the TGI was more than 100 µM.

`O=C(NNC(=O)c1ccccc1SSc1ccccc1C(=O)NNC(=O)c1ccccc1S)c1ccccc1S` gave a TGI of 54.8 µM.

The compound `Cc1ccccc1-n1c(=O)c2ncn(CCCl)c2n(-c2ccccc2C)c1=S` had a TGI of more than 100 µM.

Turning to `N#CN=C(N(Cc1ccccc1)Cc1ccccc1)N(Cc1ccccc1)Cc1ccccc1`, the TGI is more than 100 µM.

Turning to `[N-]=[N+]=Nc1cc(=O)oc2ccccc12`, the TGI was more than 100 µM.

`CNC(=O)C(C)C1CCC2(C)C=CC(=O)C(C)=C2C1O` (centres undefined) displayed a TGI of more than 100 µM.

For `Cc1cccc2c(=O)cc(-c3ccccc3)[nH]c12`, the TGI was more than 100 µM.

The compound `CCCN=C1CCN(Cc2ccccc2)c2ccccc2N1` registered a TGI of 26.2 µM.

Regarding `CCN(CC)CCC(=O)Nc1ccc2c(c1)C(=O)c1ccc(NC(=O)CCN(CC)CC)cc1C2=O`, the TGI turned out to be 22.3 µM.

`Oc1ccc(-c2nc(-c3cccnc3)c(-c3ccc(F)cc3)[nH]2)cc1`: the TGI was 29.6 µM.

In turn, `CC(C)CCCCCCCCCCCCC(=O)NCC(=O)NC1C(C)OC(Nc2ncnc3c2ncn3C)C(O)C1O` (centres undefined) yielded a TGI of more than 100 µM.

With `CCCCCCCCCCCOc1ccc(C(=O)C(=O)c2ccc(OCCCCCCCCCCC)c(OCCCCCCCCCCC)c2)cc1OCCCCCCCCCCC`, the TGI was more than 100 µM.

As to `CC(N)Cc1ccc(C(=O)Cl)cc1` (centres undefined), the TGI was more than 100 µM.

Compound `Cc1cn(C2CC(N(O)C(N)=O)C(CO)O2)c(=O)[nH]c1=O` (centres undefined) had a TGI of more than 100 µM.

On to `CC1C=C(CCCCCCCCCCCC[C@@H](O)[C@@H]2CC[C@@H]([C@@H]3CC[C@@H](C(O)CCCCCCCCCCCCC4=C[C@H](C)OC4=O)O3)O2)C(=O)O1` (some centres undefined), for which the TGI was more than 100 µM.

`O=C1c2ccccc2C2C1N2C(=O)C(F)(F)F` (centres undefined): the TGI is more than 100 µM.

Regarding `CC(=O)NC1=C(NCCC(C)C)C(=O)c2ccccc2C1=O`, the TGI is more than 50 µM.

In turn, `O=C(Cc1cccs1)N[C@@H]1C(=O)N2C(C(=O)OC(c3ccccc3)c3ccccc3)=C(CO)CS[C@H]12` returned a TGI of more than 100 µM.

In turn, `COc1ccc2c(=O)c(O)c(-c3ccc(OC)c(OC)c3)oc2c1` returned a TGI of more than 100 µM.

Regarding `CC(=O)NNc1nc(C)c(C(=O)NNC(=O)C(=O)Nc2c(Cl)cc([N+](=O)[O-])cc2Cl)s1`, the TGI was 86.2 µM.

Consider `Nc1cccc2cc(Cl)cnc12`, for which the TGI is more than 100 µM.

As for `CCOC(=O)C1=C(C)NC(=S)NC1c1ccccc1` (centres undefined), the TGI is more than 100 µM.

`N.N.N.N.O=[N+]([O-])[O-].[Co+3].[N-]=[N+]=[N-].[N-]=[N+]=[N-]` gave a TGI of more than 100 µM.

Consider `COC(=O)[C@H](Cc1c[nH]c2ccccc12)NP(=O)(O)OCC1C=CC(n2cc(C)c(=O)[nH]c2=O)O1` (some centres undefined), for which the TGI is more than 100 µM.

Turning to `CCC12C=CCN3CCC4(C(=C(C(=O)OC)[C@@H]1O)Nc1ccccc14)C32` (some centres undefined), the TGI worked out at 4.76 µM.

Compound `CC(=O)Nc1ccc(-c2nnc(SCC(=O)Nc3ccc([N+](=O)[O-])cc3)o2)cc1` showed a TGI of 21.5 µM.

The test system of a further assay is HS 578T breast. The experiment in a line: NCI anticancer screen, dose series, 48 h.
Turning to `O=c1[nH][nH]c(=O)n1Cc1ccccc1Cn1c(=O)[nH][nH]c1=O`, the TGI is more than 100 µM.

As for `CCCN=C1CCN(Cc2ccccc2)c2ccccc2N1`, the TGI came to 36.2 µM.

`Oc1ccc(-c2nc(-c3cccnc3)c(-c3ccc(F)cc3)[nH]2)cc1` had a TGI of 46.4 µM.

For the compound `Nc1cccc2cc(Cl)cnc12`, the TGI is more than 100 µM.

`COC(=O)[C@H](Cc1c[nH]c2ccccc12)NP(=O)(O)OCC1C=CC(n2cc(C)c(=O)[nH]c2=O)O1` (some centres undefined) came in with a TGI of more than 100 µM.
